Data published in ChEMBL document CHEMBL6153137, “Design, Synthesis, and Biological Evaluation of Novel Orally Available Covalent CDK12/13 Dual Inhibitors for the Treatment of Tumors” (J Med Chem, 2025).
Active and inactive are the calls of the source. The calls are words filed in the database; no cut-off is given here.

Assays:
[1] = Cmax in male Sprague-Dawley rat at 10 mg/kg, po administered via gavage and measured on day 1; format: ADME, organism-based; conditions: in vivo, time 1 day
[2] = Toxicity against male Sprague-Dawley rat assessed as effect on creatinine level in blood at 10 to 40 mg/kg, po administered once daily via gavage for 28 days and measured on day 29; format: organism-based; conditions: in vivo, 696 h, dose 10-40 mg/kg, time 29 day
[3] = biological target: T1, Cyclin-dependent kinase 12/13 (Homo sapiens) (UniProt Q14004+Q9NYV4); assay: Inhibition of CDK12/13 in human SUM149PT cells assessed as reduction in FANCI gene expression at 500 nM incubated for 8 to 24 hrs by qPCR analysis; format: cell-based; conditions: time lower 8.0 hrs, time upper […]
Mus musculus = assay: In vivo inhibition of CDK12/13 in Balb/c mouse xenografted with human SUM149PT cells assessed as reduction in ATM gene expression at 15 to 30 mg/kg, po administered once daily via gavage and measured at 4 hrs post-last drug dosage by qPCR analysis; format: functional, organism-based; conditions: dose 15-30 mg/kg
[4] = Toxicity against female Sprague-Dawley rat assessed as effect on sodium level in blood at 7.5 to 30 mg/kg, po administered once daily via gavage for 28 days and measured on day 29; format: organism-based; conditions: in vivo, 696 h, dose 7.5-30 mg/kg, time 29 day
[5] = Half life in male Sprague-Dawley rat at 20 mg/kg, po administered via gavage and measured on day 1; format: ADME, organism-based; conditions: in vivo
[6] = AUC (0 to infinity) in Sprague-Dawley rat at 150 mg/kg, po by LC-MS/MS analysis; format: ADME, organism-based; conditions: in vivo
[7] = AUC in Balb/c mouse xenografted with human SUM149PT cells at 30 mg/kg, po administered once daily via gavage; format: ADME, organism-based; conditions: in vivo
[8] = Cmax in male Sprague-Dawley rat at 10 mg/kg, po administered once daily via gavage for 28 days; format: ADME, organism-based; conditions: in vivo, time 28 day
Cytochrome P450 2C19 = Cytochrome P450 2C19 (Homo sapiens, UniProt P33261); assay: Inhibition of CYP2C19 in human liver microsomes assessed as inhibition of S-mephenytoin-4-hydroxylation incubated for 10 mins in presence of NADPH by LC-MS/MS analysis; format: ADME, Microsome
[9] = Toxicity against female Sprague-Dawley rat assessed as decrease in lymphocytes content at 7.5 to 30 mg/kg, po administered once daily via gavage for 28 days and measured on day 29; format: organism-based; conditions: in vivo, 696 h, dose 7.5-30 mg/kg, time 29 day
[10] = Toxicity against female Sprague-Dawley rat assessed as effect on hemoglobin level at 7.5 to 30 mg/kg, po administered once daily via gavage for 28 days and measured on day 29; format: organism-based; conditions: in vivo, 696 h, dose 7.5-30 mg/kg, time 29 day
[11] = AUC (0 to infinity) in Sprague-Dawley rat at 50 mg/kg, po by LC-MS/MS analysis; format: ADME, organism-based; conditions: in vivo
[12] = Cmax in male Sprague-Dawley rat at 20 mg/kg, po administered once daily via gavage for 28 days; format: ADME, organism-based; conditions: in vivo, time 28 day
[13] = Cmax in Sprague-Dawley rat at 5 mg/kg, po measured for 24 hrs by LC-MS/MS analysis; format: ADME, organism-based; conditions: in vivo
[14] = AUC in Balb/c mouse xenografted with human MV4-11 cells at 30 mg/kg, po administered once daily via gavage; format: ADME, organism-based; conditions: in vivo
[15] = Half life in Sprague-Dawley rat at 1 mg/kg, iv measured for 24 hrs by LC-MS/MS analysis; format: ADME, organism-based; conditions: in vivo
Cytochrome P450 2C9 = Cytochrome P450 2C9 (Homo sapiens, UniProt P11712); assay: Inhibition of CYP2C9 in human liver microsomes assessed as inhibition of diclofenac-4-hydroxylation incubated for 10 mins in presence of NADPH by LC-MS/MS analysis; format: ADME, Microsome
[16] = biological target: T1, Cyclin-dependent kinase 12/13 (Homo sapiens); assay: Inhibition of CDK12/13 in human SUM149PT cells assessed as reduction in BRCA1 gene expression at 500 nM incubated for 8 to 24 hrs by qPCR analysis; format: cell-based; conditions: time lower 8.0 hrs, time upper […]
[17] = Toxicity against female Sprague-Dawley rat assessed as effect on creatinine level in blood at 7.5 to 30 mg/kg, po administered once daily via gavage for 28 days and measured on day 29; format: organism-based; conditions: in vivo, 696 h, dose 7.5-30 mg/kg, time 29 day
[18] = Cmax in Sprague-Dawley rat at 1 mg/kg, iv measured for 24 hrs by LC-MS/MS analysis; format: ADME, organism-based; conditions: in vivo
OCI-AML-3 = assay: Antiproliferative activity against human OCI-AML-3 cells assessed as reduction in cell viability incubated for 7 days by CellTiter-Glo reagent based luminescence analysis; format: functional; conditions: OCI-AML-3, 168 h
[19] = Protein binding in human plasma assessed as free fraction at 400 uM incubated for 4 hrs by equilibrium dialysis method based LC-MS/MS analysis; format: ADME, cell-free
[20] = Toxicity against male Sprague-Dawley rat assessed as perianal contamination at 40 mg/kg, po administered once daily via gavage for 28 days; format: organism-based; conditions: in vivo, 672 h, time 28 day
[21] = AUC(0 to t) in female Sprague-Dawley rat at 15 mg/kg, po administered once daily via gavage for 28 days; format: ADME, organism-based; conditions: in vivo, 672 h, time 28 day
[22] = biological target: T1, Cyclin-dependent kinase 12/13 (Homo sapiens); assay: Inhibition of CDK12/13 in human SUM149PT cells assessed as reduction in ATM gene expression at 500 nM incubated for 8 to 24 hrs by qPCR analysis; format: cell-based; conditions: time lower 8.0 hrs, time upper […]
[23] = Toxicity against female Sprague-Dawley rat assessed as effect on phosphorus level in blood at 7.5 to 30 mg/kg, po administered once daily via gavage for 28 days and measured on day 29; format: organism-based; conditions: in vivo, 696 h, dose 7.5-30 mg/kg, time 29 day
SUM149PT [24] = assay: Antitumor activity against human SUM149PT cells xenografted in Balb/c mouse assessed as inhibition of tumor growth at 60 mg/kg, po administered once daily via gavage and measured on day 20; format: functional; conditions: 480 h, time 20 day, read-out: TGI
[25] = Clearance in Sprague-Dawley rat at 1 mg/kg, iv measured for 24 hrs by LC-MS/MS analysis; format: ADME, organism-based; conditions: in vivo
[26] = biological target: Mitogen-activated protein kinase 8 (Homo sapiens) (UniProt P45983); assay: Inhibition of JNK1 (unknown origin) at 5 uM by DiscoverX KinomeScan ScanMAX analysis
[27] = Toxicity against male Sprague-Dawley rat assessed as effect on AST level in blood at 10 to 40 mg/kg, po administered once daily via gavage for 28 days and measured on day 29; format: organism-based; conditions: in vivo, 696 h, dose 10-40 mg/kg, time 29 day
[28] = GSH reactivity assessed as half life to adduct formation at 0.1 uM by LC-MS/MS analysis; format: physicochemical
[29] = Cmax in female Sprague-Dawley rat at 7.5 mg/kg, po administered once daily via gavage for 28 days; format: ADME, organism-based; conditions: in vivo, time 28 day
Caco-2 = assay: Antiproliferative activity against human Caco-2 cells assessed as reduction in cell viability incubated for 7 days by CellTiter-Glo reagent based luminescence analysis; format: functional; conditions: Caco-2, 168 h
[30] = Half life in female Sprague-Dawley rat at 15 mg/kg, po administered via gavage and measured on day 1; format: ADME, organism-based; conditions: in vivo, time 1 day
CDK9/cyclin T1 = CDK9/cyclin T1 (Homo sapiens, UniProt P50750); assay: Inhibition of human recombinant N-terminal GST-tagged CDK9/N-terminal GST-tagged and C-terminal 8X His-tagged Cyclin T1 expressed in HEP Sf9 cells using ATP as substrate measured after 60 mins by ADP-Glo reagent based luminescence assay
SUM149PT [31] = assay: Antiproliferative activity against human SUM149PT cells assessed as inhibition of cell growth incubated for 7 days by CellTiter-Glo reagent based luminescence analysis; format: functional; conditions: 168 h

CDK9/cyclin T1, sequence (O60563 whole entry): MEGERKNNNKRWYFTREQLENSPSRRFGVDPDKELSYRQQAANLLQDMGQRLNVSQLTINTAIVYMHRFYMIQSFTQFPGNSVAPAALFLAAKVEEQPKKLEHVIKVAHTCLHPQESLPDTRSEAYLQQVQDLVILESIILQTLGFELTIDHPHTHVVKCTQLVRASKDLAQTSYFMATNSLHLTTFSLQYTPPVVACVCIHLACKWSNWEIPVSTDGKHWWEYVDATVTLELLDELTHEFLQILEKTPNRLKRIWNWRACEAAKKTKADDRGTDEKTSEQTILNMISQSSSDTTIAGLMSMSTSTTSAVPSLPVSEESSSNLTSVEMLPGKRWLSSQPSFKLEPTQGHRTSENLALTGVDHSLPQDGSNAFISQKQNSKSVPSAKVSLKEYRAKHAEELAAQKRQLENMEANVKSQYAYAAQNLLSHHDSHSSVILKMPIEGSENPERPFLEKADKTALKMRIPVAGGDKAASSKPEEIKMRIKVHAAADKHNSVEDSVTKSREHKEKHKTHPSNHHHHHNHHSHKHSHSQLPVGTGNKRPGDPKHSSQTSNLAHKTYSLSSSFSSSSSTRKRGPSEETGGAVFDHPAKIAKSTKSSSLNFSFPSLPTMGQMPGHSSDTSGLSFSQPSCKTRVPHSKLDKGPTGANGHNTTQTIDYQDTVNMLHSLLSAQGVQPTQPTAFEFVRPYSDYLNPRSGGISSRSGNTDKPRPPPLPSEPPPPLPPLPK
CDK9/cyclin T1, sequence (P50750 whole entry): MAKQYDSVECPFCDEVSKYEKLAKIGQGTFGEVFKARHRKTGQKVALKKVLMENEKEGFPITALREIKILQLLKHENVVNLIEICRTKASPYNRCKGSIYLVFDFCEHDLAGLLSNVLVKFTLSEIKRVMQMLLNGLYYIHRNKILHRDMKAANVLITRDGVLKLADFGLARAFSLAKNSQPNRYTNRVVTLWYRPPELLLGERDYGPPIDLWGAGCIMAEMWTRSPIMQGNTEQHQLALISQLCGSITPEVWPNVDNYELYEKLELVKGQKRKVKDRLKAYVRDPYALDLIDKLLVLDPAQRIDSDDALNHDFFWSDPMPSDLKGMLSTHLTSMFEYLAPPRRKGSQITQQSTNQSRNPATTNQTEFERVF
Mitogen-activated protein kinase 8 (Homo sapiens), sequence (P45983 whole entry): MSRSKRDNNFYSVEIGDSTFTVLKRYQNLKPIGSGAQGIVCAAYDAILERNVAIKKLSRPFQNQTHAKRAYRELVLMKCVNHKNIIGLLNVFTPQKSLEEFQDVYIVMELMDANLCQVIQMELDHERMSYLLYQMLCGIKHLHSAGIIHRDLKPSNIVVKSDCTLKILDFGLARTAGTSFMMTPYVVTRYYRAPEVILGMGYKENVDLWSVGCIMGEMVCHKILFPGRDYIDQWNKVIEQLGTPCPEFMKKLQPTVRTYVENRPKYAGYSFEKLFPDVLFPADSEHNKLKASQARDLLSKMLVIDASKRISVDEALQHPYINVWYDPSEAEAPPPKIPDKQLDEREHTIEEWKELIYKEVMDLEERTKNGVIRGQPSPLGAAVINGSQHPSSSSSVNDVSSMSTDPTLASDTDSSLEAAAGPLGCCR
Cytochrome P450 2C9, sequence (P11712 whole entry): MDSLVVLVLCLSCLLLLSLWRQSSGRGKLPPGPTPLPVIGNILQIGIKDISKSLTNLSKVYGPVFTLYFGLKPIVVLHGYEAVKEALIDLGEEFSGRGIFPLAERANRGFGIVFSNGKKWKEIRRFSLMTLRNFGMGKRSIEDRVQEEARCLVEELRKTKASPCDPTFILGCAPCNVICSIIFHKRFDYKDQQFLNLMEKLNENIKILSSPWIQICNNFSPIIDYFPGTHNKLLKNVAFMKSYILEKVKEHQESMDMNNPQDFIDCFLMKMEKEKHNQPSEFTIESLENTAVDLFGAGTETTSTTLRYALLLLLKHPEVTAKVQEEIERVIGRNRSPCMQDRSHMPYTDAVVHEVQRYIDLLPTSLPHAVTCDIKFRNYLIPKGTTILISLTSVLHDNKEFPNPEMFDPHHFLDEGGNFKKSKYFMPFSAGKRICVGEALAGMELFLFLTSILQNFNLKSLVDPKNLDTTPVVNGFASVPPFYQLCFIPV
Cytochrome P450 2C19, sequence (P33261 whole entry): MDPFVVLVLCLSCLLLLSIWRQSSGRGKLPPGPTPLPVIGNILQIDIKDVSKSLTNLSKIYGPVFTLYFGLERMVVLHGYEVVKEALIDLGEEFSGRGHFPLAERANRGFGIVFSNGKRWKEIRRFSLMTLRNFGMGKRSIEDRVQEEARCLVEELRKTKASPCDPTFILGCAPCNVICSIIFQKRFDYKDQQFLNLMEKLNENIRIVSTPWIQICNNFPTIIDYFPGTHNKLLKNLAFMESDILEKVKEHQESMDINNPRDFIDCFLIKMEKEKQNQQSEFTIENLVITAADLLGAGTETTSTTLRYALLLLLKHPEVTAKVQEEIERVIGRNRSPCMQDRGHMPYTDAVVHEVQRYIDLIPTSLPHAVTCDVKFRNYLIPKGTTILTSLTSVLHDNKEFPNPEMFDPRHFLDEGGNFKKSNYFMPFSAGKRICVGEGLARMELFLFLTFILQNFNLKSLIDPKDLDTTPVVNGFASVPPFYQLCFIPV

- Cmax [1]: 460 ng/mL
- inhibition [3]: Active
- half-life [5]: 4.1 h
- AUC(0-inf) [6]: 31200 ng·h/mL
- AUC [7]: 2690 ng·h/mL
- Cmax [8]: 576 ng/mL
- IC50 (Cytochrome P450 2C19): > 50000 nM
- AUC(0-inf) [11]: 6690 ng·h/mL
- Cmax [12]: 793 ng/mL
- Cmax [13]: 808 ng/mL
- AUC [14]: 4190 ng·h/mL
- half-life [15]: 0.23 h
- IC50 (Cytochrome P450 2C9): > 50000 nM
- inhibition [16]: Active
- Cmax [18]: 830 ng/mL
- IC50 (OCI-AML-3): 137 nM
- fraction unbound at 4 h, 400 µM [19]: 0.127
- AUCt [21]: 3220 ng·h/mL
- inhibition [22]: Active
- clearance [25]: 62.4 mL/min/kg
- inhibition [26]: Active
- t1/2 [28]: 1.48 h
- Cmax [29]: 800 ng/mL
- IC50 (Caco-2): 122 nM
- half-life [30]: 3.7 h
- IC50 (CDK9/cyclin T1): 641 nM
Compound: C=CC(=O)N1CCc2c(ncnc2N2CC[C@@H](Nc3ncc(Cl)c(OC)n3)C2)C1
- Activity [2]: Non-toxic
- inhibition (Mus musculus): Active
- Activity [4]: Non-toxic
- Activity [9]: Toxic
- Activity [10]: Non-toxic
- Activity [17]: Non-toxic
- Activity [20]: Toxic
- Activity [23]: Non-toxic
- inhibition in vivo at 60 mg/kg (SUM149PT [24]): 114%
- Activity [27]: Non-toxic
- IC50 (SUM149PT [31]): 160 nM
